# Results reported in paper PMC9780888, “4-Isobutylmethcathinone—A Novel Synthetic Cathinone with High In Vitro Cytotoxicity and Strong Receptor Binding Preference of Enantiomers” (Pharmaceuticals, 2022).
# Structures can show the parent of a compound that is named as a salt.
# Experiments:
# SH-SY5Y = assay: WST-1 viability assay, SH-SY5Y cells; type: cell-based, human; conditions: 72 h incubation, WST-1, four replicates
# Method: (§1) Based on the novelty of the IMBcat compound, we aimed to evaluate its in vitro cytotoxicity in selected model cell lines as well as to determine the toxicity of the IBMcat enantiomers, since both the chemical structure and chirality of compounds could play a role in their bioactivity (Table 2). The cytotoxic profile of the IBMcat was determined by a WST-1 viability assay after 72-h treatment. For this purpose, cell lines derived from distinct tissues, often affected by NPSs, were chosen, i.e., cells of kidney, hepatic, neural, urinary, and intestinal origin as well as keratinocytes and primary fibroblasts (HEK 293T, Hep G2, HMC-3, SH-SY5Y, 5637, CaCo-2, HaCaT, MRC-5, and BJ, respectively). The cytotoxicity of IBMcat and its enantiomers was concentration- and cell-line dependent, the IC50 values, which were in the micromolar range, are given in Table 2. […] This was followed by embryonic kidney cells HEK 293T (immortalized), in which the toxicity ranged between a concentration of 123 and 192 µM.
# (§2) In this study, the following cell lines were used: HEK 293T, Hep G2, HMC-3, SH-SY5Y, 5637, CaCo-2, HaCaT, MRC-5, BJ, and L929. […] The selected cell lines were chosen so that not only primary noncancerous cells are evaluated but also cells derived from tissues, which are the most often affected by novel synthetic drugs, i.e., kidney, liver, urinary bladder, and nervous tissue. […]
# (§3) The cytotoxicity of IBMCat was evaluated in vitro by using a WST-1 viability assay (Sigma-Aldrich, Saint Louis, MO, USA) based on the transformation of a tetrazolium salt into colored formazan in metabolically active cells. […] After 72 h of additional incubation of the cells, their viability was determined by WST-1. […] The cells were incubated for 2 h, after which absorbance of the raised formazan was measured spectrophotometrically at 450 nm (reference wavelength of 630 nm) using a UV-Vis spectrometer (Bio-Rad Laboratories, Hercules, CA, USA). […] The half-maximal inhibitory concentrations (IC50) were calculated from the measured dose–response curves by AAT Bioquest.
# HaCaT = assay: WST-1 viability assay, HaCaT cells; type: cell-based, human; conditions: 72 h incubation, WST-1, four replicates
# Method: as §1, §2, §3
Structure (SMILES),IC50 (SH-SY5Y; Homo sapiens) [µM],IC50 (HaCaT; Homo sapiens) [µM],IC50 (SH-SY5Y) [µM],IC50 (HaCaT) [µM]
"CNC(C)C(=O)c1ccc(CC(C)C)cc1.Cl (stereo not drawn) [IBMcat, 4-isobutylmethcathinone hydrochloride]",44 ± 5,357 ± 40,–,–
CN[C@H](C)C(=O)c1ccc(CC(C)C)cc1 [R-IBMCat],–,–,52 ± 4,329 ± 43
"CN[C@@H](C)C(=O)c1ccc(CC(C)C)cc1 [S-IBMCat, (S)-4-isobutylmethcathinone hydrochloride]",50 ± 1,361 ± 22,–,–
